Molecular target: human ACC2 (Homo sapiens (Human), UniProt O00763)
Assay: ACC2 assay, spectrophotometric 384 well assay (NADH-linked, coupled lactate dehydrogenase/pyruvate kinase reaction)
Type: biochemical
Conditions: hACC2 construct lacking the 128 N-terminal amino acids; 25° C., 340 nm, 15 minutes
Experimental: Spectrophotometric 384 Well Assay
Malonyl CoA formation by acetyl CoA carboxylases is stoichometrically linked to the consumption of ATP. ACC2 activity is measured in a NADH-linked kinetic method measuring ADP generated during the ACC reaction using a coupled lactate dehydrogenase/pyruvate kinase reaction.
For biological testing, a human ACC2 construct which lacks the 128 amino acids at the N-terminus for increased solubility (nt 385-6966 in Genbank entry AJ575592) is cloned. The protein is then expressed in insect cells using a baculoviral expression system. Protein purification is performed by anion exchange.
All compounds are dissolved in dimethyl sulfoxide (DMSO) to a concentration of 10 mM.
Assay reactions are then carried out in 384-well plates, with hACC2 in an appropriate dilution and at final assay concentrations (f.c.) of 100 mM Tris (pH 7.5), 10 mM trisodium citrate, 25 mM KHCC3, 10 mM MgCl2, 0.5 mg/ml BSA, 3.75 mM reduced L-glutathione, 15 U/ml lactate dehydrogenase, 0.5 mM phosphoenolpyruvate, 15 U/ml pyruvate kinase, compounds at different concentrations at final DMSO concentrations of 1%.
The enzymatic reaction is then started by addition of a mixture of NADH, acetyl Coenzyme A (both 200 μM f.c.) and ATP (500 uM f.c.). The decrease of the optical density (slope S) is then determined at 25° C. at a wavelength of 340 nm over 15 minutes in a spectrophotometric reader.
Each assay microtiter plate contains wells with vehicle instead of compound as controls for the non-inhibited enzyme (100% CTL; ‘HIGH’) and wells without acetyl-CoA as controls for non-specific NADH degradation (0% CTL; ‘LOW’).
The slope S is used for calculation of % CTL=(S(compound)−S(‘LOW’))/(S(‘HIGH’)−S(‘LOW’))*100. Compounds will give values between 100% CTL (no inhibition) and 0% CTL (complete inhibition).
For IC50 value determination, the sample slope in the presence of the test compound after subtraction of the low controls (S(compound)−S(‘LOW’)) are used.
An IC50 value is derived from the compound slopes at different dosages after subtraction of the low controls (S(compound)−S(‘LOW’)) by non-linear regression curve fitting (equation y=(A+((B−A)/(1+((C/x)^D))))).
In the following table the activity expressed as IC50 (μM) of compounds according to the invention is presented wherein the IC50 values are determined in the ACC2 assay as described hereinbefore. The term “Ex.” refers to the example numbers according to the following experimental section.

Chain of human ACC2 (O00763 129-2458): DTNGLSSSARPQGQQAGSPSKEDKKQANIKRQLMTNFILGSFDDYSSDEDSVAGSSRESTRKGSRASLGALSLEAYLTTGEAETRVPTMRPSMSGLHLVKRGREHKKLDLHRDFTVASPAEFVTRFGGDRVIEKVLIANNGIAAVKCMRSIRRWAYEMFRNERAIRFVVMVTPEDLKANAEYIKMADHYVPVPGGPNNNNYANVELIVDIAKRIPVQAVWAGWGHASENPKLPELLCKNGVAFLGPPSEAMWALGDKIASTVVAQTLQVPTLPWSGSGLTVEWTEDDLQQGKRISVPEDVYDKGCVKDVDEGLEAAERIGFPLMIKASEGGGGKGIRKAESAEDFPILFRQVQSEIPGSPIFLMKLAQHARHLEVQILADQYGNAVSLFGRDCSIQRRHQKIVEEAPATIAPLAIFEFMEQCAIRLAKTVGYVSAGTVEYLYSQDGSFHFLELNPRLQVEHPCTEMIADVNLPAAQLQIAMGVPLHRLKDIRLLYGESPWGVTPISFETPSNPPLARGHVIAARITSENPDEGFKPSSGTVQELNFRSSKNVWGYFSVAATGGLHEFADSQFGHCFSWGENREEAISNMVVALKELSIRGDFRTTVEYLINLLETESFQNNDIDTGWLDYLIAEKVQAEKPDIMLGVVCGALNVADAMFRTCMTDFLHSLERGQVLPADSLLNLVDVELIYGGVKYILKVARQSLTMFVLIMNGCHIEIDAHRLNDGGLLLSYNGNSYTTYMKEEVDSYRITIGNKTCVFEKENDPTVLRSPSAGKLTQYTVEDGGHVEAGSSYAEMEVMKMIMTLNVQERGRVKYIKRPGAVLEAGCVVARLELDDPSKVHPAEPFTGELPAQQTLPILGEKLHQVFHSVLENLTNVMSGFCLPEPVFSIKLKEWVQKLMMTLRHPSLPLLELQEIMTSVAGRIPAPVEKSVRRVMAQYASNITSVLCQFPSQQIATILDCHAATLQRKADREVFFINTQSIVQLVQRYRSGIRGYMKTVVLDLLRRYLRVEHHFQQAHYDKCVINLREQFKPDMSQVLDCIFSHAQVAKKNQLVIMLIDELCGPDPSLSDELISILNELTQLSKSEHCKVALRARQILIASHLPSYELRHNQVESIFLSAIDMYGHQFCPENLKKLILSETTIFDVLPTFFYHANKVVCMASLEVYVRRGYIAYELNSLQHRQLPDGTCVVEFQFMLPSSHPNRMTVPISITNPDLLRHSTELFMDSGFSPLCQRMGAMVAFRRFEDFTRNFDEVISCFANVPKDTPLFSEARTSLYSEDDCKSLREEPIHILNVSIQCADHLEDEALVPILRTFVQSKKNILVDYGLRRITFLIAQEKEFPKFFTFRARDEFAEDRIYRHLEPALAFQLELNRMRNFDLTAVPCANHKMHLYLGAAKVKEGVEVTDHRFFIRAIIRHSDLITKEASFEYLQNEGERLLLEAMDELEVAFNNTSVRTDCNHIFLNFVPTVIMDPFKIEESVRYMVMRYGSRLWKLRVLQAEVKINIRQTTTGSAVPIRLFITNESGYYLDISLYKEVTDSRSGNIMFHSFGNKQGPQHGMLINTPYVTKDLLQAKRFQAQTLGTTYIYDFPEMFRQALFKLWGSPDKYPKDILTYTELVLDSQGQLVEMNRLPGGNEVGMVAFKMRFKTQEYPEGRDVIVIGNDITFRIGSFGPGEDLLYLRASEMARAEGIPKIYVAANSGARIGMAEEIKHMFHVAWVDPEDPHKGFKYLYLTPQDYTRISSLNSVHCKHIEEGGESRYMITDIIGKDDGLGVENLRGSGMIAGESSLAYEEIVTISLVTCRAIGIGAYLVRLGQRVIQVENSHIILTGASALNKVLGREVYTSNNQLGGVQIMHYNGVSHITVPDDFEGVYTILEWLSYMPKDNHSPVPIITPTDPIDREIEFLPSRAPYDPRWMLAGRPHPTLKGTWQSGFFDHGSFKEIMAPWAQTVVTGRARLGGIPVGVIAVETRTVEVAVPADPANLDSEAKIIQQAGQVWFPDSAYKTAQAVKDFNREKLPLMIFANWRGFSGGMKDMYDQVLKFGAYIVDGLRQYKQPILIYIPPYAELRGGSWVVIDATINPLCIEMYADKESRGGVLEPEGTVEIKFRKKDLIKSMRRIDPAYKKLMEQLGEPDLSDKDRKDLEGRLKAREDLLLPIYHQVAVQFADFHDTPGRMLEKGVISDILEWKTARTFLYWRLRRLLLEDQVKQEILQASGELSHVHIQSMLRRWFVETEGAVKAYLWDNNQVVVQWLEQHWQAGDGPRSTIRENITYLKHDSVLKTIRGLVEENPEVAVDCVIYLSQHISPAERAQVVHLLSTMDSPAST

Row | SMILES | IC50 [nM]
1 | CCCOc1ccc(N2CC(c3ccc(CC(C)NC(C)=O)cc3)C2)cc1 (stereo not drawn) [Example 1.01, N-(1-(4-(1-(4-Propoxyphenyl)azetidin-3-yl)phenyl)propan-2-yl)acetamide] | 510
2 | CC(=O)NC(C)Cc1ccc(C2CN(c3ccc(OC4CCC4)cc3)C2)cc1 (stereo not drawn) [Example 1.02] | 260
3 | CC(=O)NC(C)Cc1ccc(C2CN(c3ccc(OC4CC4)cc3)C2)cc1 (stereo not drawn) [Example 1.03] | 340
4 | CC(=O)NC(C)Cc1ccc(C2CN(c3ccc(OCC4CC4)cc3)C2)cc1 (stereo not drawn) [Example 1.04] | 630
5 | CCCOc1ccc(N2CC(c3ccc(CC(C)NC(C)=O)cc3)C2)cn1 (stereo not drawn) [Example 1.05] | 900
6 | CC(=O)NC(C)Cc1ccc(C2CN(c3cnc(OC4CCC4)nc3)C2)cc1 (stereo not drawn) [Example 1.06] | 3810
7 | CC(=O)NC(C)Cc1ccc(C2CN(c3cnc(NC4CCC4)nc3)C2)cc1 (stereo not drawn) [Example 1.07] | 5630
8 | CCOc1ccc(N2CC(c3ccc(CC(C)NC(C)=O)cc3)C2)cc1 (stereo not drawn) [Example 1.08] | 650
9 | CC(=O)NC(C)Cc1ccc(C2CN(c3ccc(C(C)(C)C)cc3)C2)cc1 (stereo not drawn) [Example 1.09] | 2730
10 | CC(=O)NC(C)Cc1ccc(C2CN(c3ccc4ncccc4c3)C2)cc1 (stereo not drawn) [Example 1.10] | 8100
11 | CCCOc1ccc(N2CC(c3ccc(CC(C)NC(C)=O)cc3)C2)c(OC)c1 (stereo not drawn) [Example 1.11] | 600
12 | CCCOc1cc(N2CC(c3ccc(CC(C)NC(C)=O)cc3)C2)ccn1 (stereo not drawn) [Example 1.12] | 610
13 | CC(=O)NC(C)Cc1ccc(C2CN(c3ccc4c(c3)OCCO4)C2)cc1 (stereo not drawn) [Example 1.13] | 950
14 | CC(=O)NC(C)CCc1ccc(C2CN(c3ccc4c(c3)OCCO4)C2)cc1 (stereo not drawn) [Example 1.14] | 670
15 | CC(=O)NC(C)CCc1ccc(C2CN(c3ccc(OC4CC4)cc3)C2)cc1 (stereo not drawn) [Example 1.15] | 480
16 | CCOc1ccc(N2CC(c3ccc(CCC(C)NC(C)=O)cc3)C2)cc1 (stereo not drawn) [Example 1.16] | 410
17 | CC(=O)NC(C)CCc1ccc(C2CN(c3ccc(OCC4CC4)cc3)C2)cc1 (stereo not drawn) [Example 1.17] | 190
18 | CC(=O)NC(C)CCc1ccc(C2CN(c3cccc(OC(C)C)c3)C2)cc1 (stereo not drawn) [Example 1.18] | 3180
19 | CCOc1ccc(N2CC(c3ccc(C(C)NC(C)=O)cc3)C2)cc1 (stereo not drawn) [Example 1.19] | 1130
20 | CC(=O)NC(C)c1ccc(C2CN(c3ccc4c(c3)OCCO4)C2)cc1 (stereo not drawn) [Example 1.20] | 490
21 | CC(=O)NC(C)c1ccc(C2CN(c3ccc(OC4CCCC4)cc3)C2)cc1 (stereo not drawn) [Example 1.21] | 340
22 | CCC(C)Nc1ncc(N2CC(c3ccc(C(C)NC(C)=O)cc3)C2)cn1 (stereo not drawn) [Example 1.22] | 2080

Row | SMILES | IC50 [nM]
23 | CC(=O)N[C@@H](C)c1ccc(C2CN(c3ccc(OCC4CC4)cc3)C2)cc1 [Example 1.23] | 380
24 | CC(=O)N[C@@H](C)c1ccc(C2CN(c3ccc(OC4CCC4)cc3)C2)cc1 [Example 1.24] | 1630
25 | CC(=O)N[C@@H](C)c1ccc(C2CN(c3ccc(OC4CC4)cc3)C2)cc1 [Example 1.25] | 540
26 | CCCOc1ccc(N2CC(c3ccc([C@H](C)NC(C)=O)cc3)C2)cc1 [Example 1.26] | 510
27 | CC(=O)N[C@@H](C)c1ccc(C2CN(c3ccc4c(c3)OCCO4)C2)cc1 [Example 1.27] | 170
28 | CCOc1cccc(N2CC(c3ccc([C@H](C)NC(C)=O)cc3)C2)c1 [Example 1.28] | 680
29 | CC(=O)N[C@@H](C)c1ccc(C2CN(c3ccc4c(c3)OCCCO4)C2)cc1 [Example 1.29] | 780
30 | CC(=O)NC(C)Cc1ccc(C2CN(c3ncc(OCC4CC4(F)F)cc3F)C2)cc1 (stereo not drawn) [Example 1.30] | 740
31 | CC(=O)N[C@@H](C)c1ccc(C2CN(c3ccc(OCC4CC4(F)F)cn3)C2)cc1 (stereo partly drawn) [Example 1.31] | 600
32 | CC(=O)N[C@@H](C)c1ccc(C2CN(c3ccnc(N4CCOCC4)n3)C2)cc1 [Example 1.32] | 9040
33 | CC(=O)N[C@@H](C)c1ccc(C2CN(c3ncc(OCC4CC4(F)F)cn3)C2)cc1 (stereo partly drawn) [Example 1.33] | 180
34 | CC(=O)N[C@@H](C)c1ccc(C2CN(c3ccc(OCCCF)cn3)C2)cc1 [Example 1.34] | 830
35 | CC(=O)N[C@@H](C)c1ccc(C2CN(c3ncc(OCC4CC4(F)F)cc3F)C2)cc1 (stereo partly drawn) [Example 1.35] | 180
36 | CC(=O)NC(C)Cc1ccc(C2CN(c3ncc(Br)cn3)C2)cc1 (stereo not drawn) [Example 2.01, N-(1-(4-(1-(5-bromopyrimidin-2-yl)azetidin-3-yl)phenyl)propan-2-yl)acetamide] | 8560
37 | CCCc1cnc(N2CC(c3ccc(CC(C)NC(C)=O)cc3)C2)nc1 (stereo not drawn) [Example 2.02] | 3790
38 | CC(=O)NC(C)Cc1ccc(C2CN(c3ccc(-c4ccc(Cl)cc4)nn3)C2)cc1 (stereo not drawn) [Example 2.03] | 7020
39 | CC(=O)NC(C)CCc1ccc(C2CN(c3ncc(C4CC4)cn3)C2)cc1 (stereo not drawn) [Example 2.04] | 2560
40 | CC(=O)NC(C)CCc1ccc(C2CN(c3ncc4nc(-c5ccccc5)oc4n3)C2)cc1 (stereo not drawn) [Example 2.05] | 810
41 | CC(=O)NC(C)CCc1ccc(C2CN(c3cccc(C(F)(F)F)n3)C2)cc1 (stereo not drawn) [Example 2.06] | 1420
42 | CC(=O)N[C@@H](C)c1ccc(C2CN(c3ncc4nc(-c5ccccc5)oc4n3)C2)cc1 [Example 2.07] | 340
43 | COc1ccc(-c2cnc(N3CC(c4ccc([C@H](C)NC(C)=O)cc4)C3)nc2)cc1 [Example 2.08] | 320
44 | CC(=O)N[C@@H](C)c1ccc(C2CN(c3ccc(C(F)(F)F)cn3)C2)cc1 [Example 2.09] | 450

Row | SMILES | IC50 [nM]
45 | CC(=O)N[C@@H](C)c1ccc(C2CN(c3cccc(C(F)(F)F)n3)C2)cc1 [Example 2.10] | 470
46 | CC(=O)N[C@@H](C)c1ccc(C2CN(c3nnc(-c4ccccc4)s3)C2)cc1 [Example 2.11] | 7760
47 | CC(=O)N[C@@H](C)c1ccc(C2CN(c3ncc(C4CC4)cn3)C2)cc1 [Example 2.12] | 420
48 | CC(=O)N[C@@H](C)c1ccc(C2CN(c3ncc4nc(-c5ccsc5)oc4n3)C2)cc1 [Example 2.13] | 690
49 | CC(=O)N[C@@H](C)c1ccc(C2CN(c3ncc(C(F)(F)F)cn3)C2)cc1 [Example 2.15] | 850
50 | Cc1oncc1C(=O)N[C@@H](C)c1ccc(C2CN(c3ccc(OCC4CC4)cc3)C2)cc1 [Example 3.01, (S)—N-(1-(4-(1-(4-(cyclopropylmethoxy)phenyl)azetidin-3-yl)phenyl)ethyl)-5-methylisoxazole-4-carboxamide] | 330
51 | C[C@H](NC(=O)c1cn[nH]c1)c1ccc(C2CN(c3ccc(OCC4CC4)cc3)C2)cc1 [Example 3.02] | 1060
52 | C[C@H](NC(=O)C1CC=CC1)c1ccc(C2CN(c3ccc(OCC4CC4)cc3)C2)cc1 [Example 3.03] | 380
53 | CC(=O)Nc1nc(C)c(C(=O)N[C@@H](C)c2ccc(C3CN(c4ccc(OCC5CC5)cc4)C3)cc2)s1 [Example 3.04] | 250
54 | CC(=O)Nc1cncc(C(=O)NC(C)Cc2ccc(C3CN(c4ccc(OCC5CC5)cc4)C3)cc2)c1 (stereo not drawn) [Example 3.05] | 1730
55 | C=CCC(=O)NC(C)Cc1ccc(C2CN(c3ccc(OCC4CC4)cc3)C2)cc1 (stereo not drawn) [Example 3.06] | 1070
56 | CC(Cc1ccc(C2CN(c3ccc(OCC4CC4)cc3)C2)cc1)NC(=O)C1(C#N)CC1 (stereo not drawn) [Example 3.07] | 2580
57 | CCCC(=O)NC(C)Cc1ccc(C2CN(c3ccc(OCC4CC4)cc3)C2)cc1 (stereo not drawn) [Example 3.08] | 3070
58 | CC(Cc1ccc(C2CN(c3ccc(OCC4CC4)cc3)C2)cc1)NC(=O)C(C)F (stereo not drawn) [Example 3.09] | 2510
59 | CCC(=O)NC(C)Cc1ccc(C2CN(c3ccc(OCC4CC4)cc3)C2)cc1 (stereo not drawn) [Example 3.10] | 890
60 | CC(Cc1ccc(C2CN(c3ccc(OCC4CC4)cc3)C2)cc1)NC(=O)C(C)(F)F (stereo not drawn) [Example 3.11] | 1450
61 | CC(Cc1ccc(C2CN(c3ccc(OCC4CC4)cc3)C2)cc1)NC(=O)C(F)F (stereo not drawn) [Example 3.12] | 2730
62 | CC(Cc1ccc(C2CN(c3ccc(OCC4CC4)cc3)C2)cc1)NC(=O)Cc1cc[nH]c1 (stereo not drawn) [Example 3.13] | 2970
63 | CC(Cc1ccc(C2CN(c3ccc(OCC4CC4)cc3)C2)cc1)NC(=O)CF (stereo not drawn) [Example 3.14] | 1770
64 | CC(=O)Nc1nc(C)c(C(=O)NC(C)Cc2ccc(C3CN(c4ccc(OCC5CC5)cc4)C3)cc2)s1 (stereo not drawn) [Example 3.15] | 1050
65 | COCC(=O)NC(C)Cc1ccc(C2CN(c3ccc(OCC4CC4)cc3)C2)cc1 (stereo not drawn) [Example 3.16] | 3050
66 | Cc1nocc1C(=O)NC(C)Cc1ccc(C2CN(c3ccc(OCC4CC4)cc3)C2)cc1 (stereo not drawn) [Example 3.17] | 2790
